Measured values published in US9840478B2 (MERCK SHARP & DOHME CORP., priority 2013, dated 2017).

Tested on: HIV-1 (H9IIIB strain)
Experiment: Cell-based HIV infection assay using a reporter (Cell-Based), MT4-GFP cells
Conditions: Human immunodeficiency virus 1, MT4-GFP cells infected with HIV-1 H9IIIB; 50% normal human serum; mean of at least two independent experiments; read-out: Cell-based IP
Method: Cell-Based HIV Infection Assay Using a Reporter (“Cell-Based”):
MT4-GFP cells contain a stably integrated HIV long terminal repeat promoter directing the transcription of green fluorescent protein (GFP). When HIV infects the cell, GFP is produced and the cell becomes green. MT4-GFP cells (250,000 cells/ml) were bulk-infected with HIV-1 (H9IIIB strain) at low multiplicity of infection (MOI) in RPMI media, supplemented with 10% FBS for 24 hours. Cells were then washed once in RPMI plus 10% FBS and resuspended in RPMI plus 50% normal human serum (NHS). Test compounds were serial-diluted in DMSO using an ECHO liquid dispenser. A control well included a combination of three HIV drugs (an inhibitor of HIV protease, integrase strand transfer and a non-nucleoside reverse transcriptase inhibitor; triple drug). The infected MT4-GFP cells were added to a 384-well poly-D-lysine coated black plate with clear bottom in which the diluted test compounds were placed. The cells were seeded in the plate at 8,000 cells per well and the final DMSO concentration was 0.4%. Infected cells were quantified at both 24 and 48 hours post incubation using an Acumen eX3 plate reader. Viral reproductive ratio (R0) was determined using the number of infected cells at 48 hours divided by the number of infected cells at 24 hours. Percent viral growth inhibition was calculated by [1−(R−Rtripledrug)/(RDMSO−Rtripledrug)]*100. Compound potency IP or IC50 was determined with use of a 4-parameter dose response curve analysis.

Row | SMILES | IC50 [nM]
1 | COC(=O)N[C@H](C(=O)Nc1cccc(F)c1CC[C@H]1CNCC2(CC2)CN1S(=O)(=O)c1ccccc1)[C@@H](c1ccc(F)cc1)C1CCOCC1 [Example 20, Methyl ((2S,3R)-1-((3-fluoro-2-(2-((S)-5-(phenylsulfonyl)-5,8-diazaspiro[2.6]nonan-6-yl)ethyl)phenyl)amino)-3-(4-fluorophenyl)-1-oxo-3-(tetrahydro-2H-pyran-4-yl)propan-2-yl)carbamate] | 21
2 | N[C@H](C(=O)Nc1cncc(F)c1CC[C@H]1CNCCN1S(=O)(=O)CC1CC1)[C@@H](c1ccc(F)cc1)c1cc(F)cc(F)c1 [Example 28, (βS)-N-[4-(2-{(2S)-1-[(cyclopropylmethyl)sulfonyl]piperazin-2-yl}ethyl)-5-fluoropyridin-3-yl]-3,5-difluoro-β-(4-fluorophenyl)-L-phenylalaninamide] | 21
3 | Nc1ccc(S(=O)(=O)N2CCNC[C@@H]2CCc2c(F)cncc2NC(=O)[C@@H](N)[C@@H](c2ccc(F)cc2)c2cc(F)cc(F)c2)cn1 [Example 29, (βS)-N-[4-(2-{(2S)-1[(6-aminopyridin-3-yl)sulfonyl]piperazin-2-yl}ethyl)-5-fluoropyridin-3-yl]-3,5-difluoro-β-(4-fluorophenyl)-L-phenylalaninamide] | 520
4 | N[C@H](C(=O)Nc1cncc(F)c1CC[C@H]1CNCCN1S(=O)(=O)c1ccccc1)[C@@H](c1ccc(F)cc1)c1cc(F)cc(F)c1 [Example 30, (βS)-β-(3,5-difluorophenyl)-4-fluoro-N-(5-fluoro-4-{2-[(2S)-1-(phenylsulfonyl)piperazin-2-yl]ethyl}pyridin-3-yl)-L-phenylalaninamide] | 9.3
5 | N[C@H](C(=O)Nc1cccc(F)c1CC[C@@H]1CNCCN1S(=O)(=O)c1ccccc1)C(c1ccc(F)cc1)c1ccc(F)cc1 [Example 31, (S)-2-amino-N-(3-fluoro-2-(2-((R)-1-(phenylsulfonyl)piperazin-2-yl)ethyl)phenyl)-3,3-bis(4-fluorophenyl) propanamide] | 850
6 | N[C@H](C(=O)Nc1cccc(F)c1CC[C@H]1CNCCN1S(=O)(=O)c1ccccc1)C(c1ccc(F)cc1)c1ccc(F)cc1 [Example 32, (S)-2-amino-N-(3-fluoro-2-(2-((S)-1-(phenylsulfonyl)piperazin-2-yl)ethyl)phenyl)-3,3-bis(4-fluorophenyl) propanamide] | 6.6
7 | N[C@H](C(=O)Nc1cncc(F)c1CC[C@H]1CNCCN1S(=O)(=O)C1CC1)[C@@H](c1ccc(F)cc1)c1cc(F)cc(F)c1 [Example 33, (βS)-N-(4-{2-[(2S)-1-(cyclopropylsulfonyl)piperazin-2-yl]ethyl}-5-fluoropyridin-3-yl)-3,5-difluoro-β-(4-fluorophenyl)-L-phenylalaninamide] | 25
8 | N[C@H](C(=O)Nc1cccc(F)c1CCC1CNCCN1S(=O)(=O)c1ccccc1)C(c1cc(F)cc(F)c1)c1cc(F)cc(F)c1 (stereo partly drawn) [Example 34, β-(3,5-difluorophenyl)-3,5-difluoro-N-(3-fluoro-2-{2-[1-(phenylsulfonyl)piperazin-2-yl]ethyl}phenyl)-L-phenylalaninamide] | 16
9 | N[C@H](C(=O)Nc1cncc(F)c1CC[C@H]1CNCCN1S(=O)(=O)c1ccccc1)[C@@H](c1ccc(Cl)cc1)c1cccc(F)c1 [Example 35, (βS)-4-chloro-β-(3-fluorophenyl)-N-(5-fluoro-4-{2-[(2S)-1-(phenylsulfonyl)piperazin-2-yl]ethyl}pyridin-3-yl)-L-phenylalaninamide] | 13
10 | O=C(C[C@@H](c1ccc(Cl)cc1)C1CCS(=O)(=O)CC1)Nc1cccc(F)c1CC[C@H]1CNCCN1S(=O)(=O)c1ccccc1 [Example 36, (3R)-3-(4-chlorophenyl)-3-(1,1-dioxidotetrahydro-2H-thiopyran-4-yl)-N-(3-fluoro-2-{2-[(2S)-1-(phenylsulfonyl)piperazin-2-yl]ethyl}phenyl) propanamide] | 29
11 | N[C@H](C(=O)Nc1cccc(F)c1CC[C@H]1CNCCN1S(=O)(=O)c1ccccc1)[C@@H](c1ccc(Cl)c(F)c1)C1CCOCC1 [Example 37, (βR)-4-chloro-3-fluoro-N-(3-fluoro-2-{2-[(2S)-1-(phenylsulfonyl)piperazin-2-yl]ethyl}phenyl)-β-(tetrahydro-2H-pyran-4-yl)-L-phenylalaninamide] | 46
12 | N[C@H](C(=O)Nc1cccc(F)c1CC[C@@H]1CNCCN1S(=O)(=O)c1ccccc1)[C@@H](c1ccc(Cl)c(F)c1)C1CCOCC1 [Example 38, (βR)-4-chloro-3-fluoro-N-(3-fluoro-2-{2-[(2R)-1-(phenylsulfonyl)piperazin-2-yl]ethyl}phenyl)-β-(tetrahydro-2H-pyran-4-yl)-L-phenylalaninamide] | 890
13 | N[C@H](C(=O)Nc1cccc(F)c1CC[C@H]1CNCCN1S(=O)(=O)c1ccccc1)[C@@H](c1ccc(Cl)cc1)c1cccc(F)c1 [Example 39, (βS)-4-chloro-β-(3-fluorophenyl)-N-(3-fluoro-2-{2-[(2S)-1-(phenylsulfonyl)piperazin-2-yl]ethyl}phenyl)-L-phenylalaninamide] | 12
14 | N[C@H](C(=O)Nc1cccc(F)c1CC[C@H]1CNCCN1S(=O)(=O)c1ccccc1)[C@@H](c1ccc(Cl)cc1)C1CCS(=O)(=O)CC1 [Example 41, (βR)-4-chloro-β-(1,1-dioxidotetrahydro-2H-thiopyran-4-yl)-N-(3-fluoro-2-{2-[(2S)-1-(phenylsulfonyl)piperazin-2-yl]ethyl}phenyl)-L-phenylalaninamide] | 34
15 | N[C@H](C(=O)Nc1cccc(F)c1CC[C@H]1CNCCN1S(=O)(=O)c1ccccc1)[C@@H](c1ccc(Cl)cc1)c1cccc(OC(F)(F)F)c1 [Example 42, (βS)-4-chloro-N-(3-fluoro-2-{2-[(2S)-1-(phenylsulfonyl)piperazin-2-yl]ethyl}phenyl)-β-[3-(trifluoromethoxy)phenyl]-L-phenylalaninamide] | 60
16 | N[C@H](C(=O)Nc1cccc(F)c1CC[C@H]1CNCCN1S(=O)(=O)c1ccccc1)[C@@H](c1ccc(Cl)cc1)c1cc(F)cc(F)c1 [Example 43, (βS)-4-chloro-β-(3,5-difluorophenyl)-N-(3-fluoro-2-{2-[(2S)-1-(phenylsulfonyl)piperazin-2-yl]ethyl}phenyl)-L-phenylalaninamide] | 12
17 | N[C@H](C(=O)Nc1cccc(F)c1CC[C@H]1CNCCN1S(=O)(=O)c1ccccc1)[C@@H](c1ccc(Cl)cc1)c1cncc(F)c1 [Example 44, (βS)-4-chloro-N-(3-fluoro-2-{2-[(2S)-1-(phenylsulfonyl)piperazin-2-yl]ethyl}phenyl)-β-(5-fluoropyridin-3-yl)-L-phenylalaninamide] | 15
18 | N[C@H](C(=O)Nc1cncc(F)c1CC[C@H]1CNCCN1S(=O)(=O)c1ccccc1)[C@@H](c1ccc(Cl)cc1)c1cccc(OC(F)(F)F)c1 [Example 45, (βS)-4-chloro-N-(5-fluoro-4-{2-[(2S)-1-(phenylsulfonyl)piperazin-2-yl]ethyl}pyridin-3-yl)-β-[3-(trifluoromethoxy)phenyl]-L-phenylalaninamide] | 16
19 | N[C@H](C(=O)Nc1cncc(F)c1CC[C@H]1CNCCN1S(=O)(=O)c1ccccc1)[C@@H](c1ccc(Cl)cc1)c1cc(F)cc(F)c1 [Example 46, (βS)-4-chloro-β-(3,5-difluorophenyl)-N-(5-fluoro-4-{2-[(2S)-1-(phenylsulfonyl)piperazin-2-yl]ethyl}pyridin-3-yl)-L-phenylalaninamide] | 12
20 | N[C@@H](Cc1ccc(F)cc1)C(=O)Nc1cncc(F)c1CC[C@H]1CNCCN1S(=O)(=O)C1CC1 [Example 47, N-(4-{2-[(2S)-1-(cyclopropylsulfonyl)piperazin-2-yl]ethyl}-5-fluoropyridin-3-yl)-4-fluoro-L-phenylalaninamide] | 1200
21 | COC(=O)N[C@H](C(=O)Nc1cncc(F)c1CC[C@H]1CNCCN1S(C)(=O)=O)[C@@H](c1ccc(F)cc1)c1cc(F)cc(F)c1 [Example 48, methyl ((1S,2S)-1-(3,5-difluorophenyl)-3-((5-fluoro-4-(2-((S)-1-(methylsulfonyl)piperazin-2-yl)ethyl)pyridin-3-yl)amino)-1-(4-fluorophenyl)-3-oxopropan-2-yl)carbamate] | 66
22 | COC(=O)N[C@H](C(=O)Nc1cncc(F)c1CC[C@@H]1CNCCN1S(C)(=O)=O)[C@@H](c1ccc(F)cc1)c1cc(F)cc(F)c1 [Example 49, methyl ((1S,2S)-1-(3,5-difluorophenyl)-3-((5-fluoro-4-(2-((R)-1-(methylsulfonyl)piperazin-2-yl)ethyl)pyridin-3-yl)amino)-1-(4-fluorophenyl)-3-oxopropan-2-yl)carbamate] | 1700
23 | COC(=O)N[C@H](C(=O)Nc1cncc(F)c1CC[C@H]1CNCCN1S(=O)(=O)C1CC1)[C@@H](c1ccc(F)cc1)c1cc(F)cc(F)c1 [Example 50, (βS)-N-(4-{2-[(2S)-1-(cyclopropylsulfonyl)piperazin-2-yl]ethyl}-5-fluoropyridin-3-yl)-3,5-difluoro-β-(4-fluorophenyl)-Nα-(methoxycarbonyl)-L-phenylalaninamide] | 21
